ChEMBL document CHEMBL1148503, “Evaluation of the eutomer of 4-{3-(4-chlorophenyl)-3-hydroxypyrrolidin-1-yl}-1-(4-fluorophenyl)butan-1-one, {(+)-SYA 09}, a pyrrolidine analog of haloperidol” (Bioorg Med Chem Lett, 2006)

Columns and labels:
[1] = target: T1, Alpha-1A adrenergic receptor (Homo sapiens, UniProt P35348); assay: Binding affinity to human cloned adrenergic alpha-1A receptor by radioligand binding assay
T1 sequence (P35348 whole entry): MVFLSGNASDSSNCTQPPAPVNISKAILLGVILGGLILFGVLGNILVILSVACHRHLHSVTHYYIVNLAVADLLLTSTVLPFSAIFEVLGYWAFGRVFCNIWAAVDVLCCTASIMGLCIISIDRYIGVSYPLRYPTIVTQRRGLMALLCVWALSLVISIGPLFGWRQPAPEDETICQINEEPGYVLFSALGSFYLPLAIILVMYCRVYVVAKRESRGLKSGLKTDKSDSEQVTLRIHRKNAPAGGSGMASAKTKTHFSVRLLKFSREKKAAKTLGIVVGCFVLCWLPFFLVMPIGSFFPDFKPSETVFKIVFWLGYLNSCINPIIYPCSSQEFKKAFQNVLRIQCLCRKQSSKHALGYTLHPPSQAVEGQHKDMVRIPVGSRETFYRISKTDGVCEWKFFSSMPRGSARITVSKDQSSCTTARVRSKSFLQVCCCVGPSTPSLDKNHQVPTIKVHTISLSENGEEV

[2] = target: T2, Alpha-1B adrenergic receptor (Homo sapiens, UniProt P35368); assay: Binding affinity to human cloned adrenergic alpha-1B receptor by radioligand binding assay
T2 sequence (P35368 whole entry): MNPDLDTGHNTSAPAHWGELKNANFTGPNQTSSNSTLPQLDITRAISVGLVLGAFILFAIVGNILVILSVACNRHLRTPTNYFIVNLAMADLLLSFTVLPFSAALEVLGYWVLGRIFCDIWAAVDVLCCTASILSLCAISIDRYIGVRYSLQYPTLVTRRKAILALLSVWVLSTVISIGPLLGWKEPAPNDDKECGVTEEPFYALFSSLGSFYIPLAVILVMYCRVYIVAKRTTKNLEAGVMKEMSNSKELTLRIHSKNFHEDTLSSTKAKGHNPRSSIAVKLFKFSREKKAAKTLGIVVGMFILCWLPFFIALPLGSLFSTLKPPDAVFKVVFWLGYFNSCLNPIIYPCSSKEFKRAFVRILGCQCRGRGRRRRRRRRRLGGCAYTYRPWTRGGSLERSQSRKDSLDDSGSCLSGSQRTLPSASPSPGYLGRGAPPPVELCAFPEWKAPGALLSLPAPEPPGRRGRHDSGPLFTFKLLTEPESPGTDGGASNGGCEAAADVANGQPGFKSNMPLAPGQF

[3] = target: T3, Alpha-2A adrenergic receptor (Homo sapiens, UniProt P08913); assay: Binding affinity to human cloned adrenergic alpha-2A receptor by radioligand binding assay
T3 sequence (P08913 whole entry): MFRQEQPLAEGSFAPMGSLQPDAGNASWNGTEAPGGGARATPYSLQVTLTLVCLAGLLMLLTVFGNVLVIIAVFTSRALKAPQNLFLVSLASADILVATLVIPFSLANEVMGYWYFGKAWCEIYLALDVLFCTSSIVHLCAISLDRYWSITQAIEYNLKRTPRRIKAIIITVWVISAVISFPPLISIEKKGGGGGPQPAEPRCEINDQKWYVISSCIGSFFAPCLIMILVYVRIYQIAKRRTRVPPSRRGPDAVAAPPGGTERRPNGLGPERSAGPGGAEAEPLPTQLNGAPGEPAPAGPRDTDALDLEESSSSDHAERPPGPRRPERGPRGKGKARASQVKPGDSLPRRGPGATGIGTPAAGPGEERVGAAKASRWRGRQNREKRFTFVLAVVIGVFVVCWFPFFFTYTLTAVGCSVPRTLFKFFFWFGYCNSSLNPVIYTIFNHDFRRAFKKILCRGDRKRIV

[4] = target: T4, Alpha-2B adrenergic receptor (Homo sapiens, UniProt P18089); assay: Binding affinity to human cloned adrenergic alpha-2B receptor by radioligand binding assay
T4 sequence (P18089 whole entry): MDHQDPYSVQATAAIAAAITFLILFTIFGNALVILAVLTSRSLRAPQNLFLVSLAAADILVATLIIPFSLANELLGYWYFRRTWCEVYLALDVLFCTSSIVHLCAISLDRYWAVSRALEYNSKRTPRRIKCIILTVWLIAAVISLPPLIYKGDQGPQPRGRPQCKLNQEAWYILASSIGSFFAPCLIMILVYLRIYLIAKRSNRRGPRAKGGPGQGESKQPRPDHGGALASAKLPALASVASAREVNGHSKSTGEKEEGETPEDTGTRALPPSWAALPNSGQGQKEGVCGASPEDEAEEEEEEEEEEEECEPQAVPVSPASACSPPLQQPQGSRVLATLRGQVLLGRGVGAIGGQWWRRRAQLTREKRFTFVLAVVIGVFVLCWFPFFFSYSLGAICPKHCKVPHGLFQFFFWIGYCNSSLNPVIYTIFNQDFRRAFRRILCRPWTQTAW

[5] = target: T5, Alpha-2C adrenergic receptor (Homo sapiens, UniProt P18825); assay: Binding affinity to human cloned adrenergic alpha-2C receptor by radioligand binding assay
T5 sequence (P18825 whole entry): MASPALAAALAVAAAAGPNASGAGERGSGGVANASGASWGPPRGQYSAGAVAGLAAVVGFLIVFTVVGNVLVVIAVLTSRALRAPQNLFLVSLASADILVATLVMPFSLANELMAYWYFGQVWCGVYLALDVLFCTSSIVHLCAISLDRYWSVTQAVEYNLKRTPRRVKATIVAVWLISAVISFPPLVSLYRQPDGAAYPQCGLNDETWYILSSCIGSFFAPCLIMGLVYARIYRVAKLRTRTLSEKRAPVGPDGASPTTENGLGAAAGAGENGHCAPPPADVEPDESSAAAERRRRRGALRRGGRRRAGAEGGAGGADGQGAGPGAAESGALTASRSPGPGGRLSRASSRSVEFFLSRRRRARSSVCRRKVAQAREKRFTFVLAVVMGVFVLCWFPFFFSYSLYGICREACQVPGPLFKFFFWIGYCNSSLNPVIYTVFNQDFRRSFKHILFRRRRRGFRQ

Mus musculus = assay: Inhibition of apomorphine-induced climbing in ip dosed Swiss Webster mouse; assay type: functional
[6] = target: T6, 5-hydroxytryptamine receptor 1A (Homo sapiens, UniProt P08908); assay: Binding affinity to human cloned 5HT1A receptor by radioligand binding assay
T6 sequence (P08908 whole entry): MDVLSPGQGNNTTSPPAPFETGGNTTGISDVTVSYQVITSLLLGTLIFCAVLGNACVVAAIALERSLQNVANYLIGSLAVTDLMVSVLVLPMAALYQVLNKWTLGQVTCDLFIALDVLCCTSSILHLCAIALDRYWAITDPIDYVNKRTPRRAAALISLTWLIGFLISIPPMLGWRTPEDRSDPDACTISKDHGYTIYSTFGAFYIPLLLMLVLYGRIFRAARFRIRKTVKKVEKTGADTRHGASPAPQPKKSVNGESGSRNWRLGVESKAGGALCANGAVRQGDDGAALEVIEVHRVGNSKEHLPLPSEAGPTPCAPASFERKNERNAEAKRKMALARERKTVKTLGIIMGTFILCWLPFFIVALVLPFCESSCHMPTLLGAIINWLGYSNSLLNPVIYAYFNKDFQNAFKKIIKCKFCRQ

[7] = target: T7, 5-hydroxytryptamine receptor 2C (Homo sapiens, UniProt P28335); assay: Binding affinity to human cloned 5HT2C receptor by radioligand binding assay
T7 sequence (P28335 whole entry): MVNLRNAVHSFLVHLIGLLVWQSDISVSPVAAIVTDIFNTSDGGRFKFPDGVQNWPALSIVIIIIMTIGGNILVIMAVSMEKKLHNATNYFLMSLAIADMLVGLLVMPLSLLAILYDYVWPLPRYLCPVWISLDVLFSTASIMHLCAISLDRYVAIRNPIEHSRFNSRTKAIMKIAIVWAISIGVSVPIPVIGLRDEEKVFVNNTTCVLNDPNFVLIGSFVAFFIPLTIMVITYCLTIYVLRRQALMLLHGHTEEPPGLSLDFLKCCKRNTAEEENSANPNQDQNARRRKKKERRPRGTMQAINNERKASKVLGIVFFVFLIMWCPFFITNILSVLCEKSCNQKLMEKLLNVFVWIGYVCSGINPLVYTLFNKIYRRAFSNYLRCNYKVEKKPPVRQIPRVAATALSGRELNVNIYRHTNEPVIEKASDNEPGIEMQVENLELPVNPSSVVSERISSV

O=C(CCCN1C2CCC1CC(O)(c1ccc(Cl)cc1)C2)c1ccc(F)cc1 (stereo unspecified)
Ki [1]: 39.3 nM | Ki [2]: 42.7 nM | Ki [3]: 2830 nM | Ki [4]: 516 nM | Ki [5]: 143 nM

O=C(CCCN1CCC(O)(c2ccc(Cl)cc2)C1)c1ccc(F)cc1 (single isomer, unassigned; (+))
ED50 (Mus musculus): 1.6 mg/kg | Ki [6]: 722 nM | Ki [7]: 3600 nM | Ki [1]: 115 nM | Ki [2]: 102 nM

O=C(CCCN1CCC(O)(c2ccc(Cl)cc2)C1)c1ccc(F)cc1 (stereo in doubt; 2b)
Ki [6]: 832 nM | Ki [7]: 1250 nM | Ki [1]: 34 nM | Ki [2]: 41.7 nM

CN1CCN(C2=Nc3cc(Cl)ccc3Nc3ccccc32)CC1 [CLOZAPINE]
ED50 (Mus musculus): 5.54 mg/kg

O=C(CCCN1CCC(O)(c2ccc(Cl)cc2)CC1)c1ccc(F)cc1 [HALOPERIDOL]
ED50 (Mus musculus): 0.007 mg/kg
